Changes are numbered by the printed parent chain. Entries after “also recorded” stand apart in the source; their conditions may differ.
How the values were obtained:
mice [1] = details: cited from earlier work
M1 [2] = biological target: T1, M1 (Homo sapiens, UniProt P11229); test: Calcium mobilization, hM1-CHO cells, PAM mode; assay type: cell-based
T1 sequence (P11229 1-460): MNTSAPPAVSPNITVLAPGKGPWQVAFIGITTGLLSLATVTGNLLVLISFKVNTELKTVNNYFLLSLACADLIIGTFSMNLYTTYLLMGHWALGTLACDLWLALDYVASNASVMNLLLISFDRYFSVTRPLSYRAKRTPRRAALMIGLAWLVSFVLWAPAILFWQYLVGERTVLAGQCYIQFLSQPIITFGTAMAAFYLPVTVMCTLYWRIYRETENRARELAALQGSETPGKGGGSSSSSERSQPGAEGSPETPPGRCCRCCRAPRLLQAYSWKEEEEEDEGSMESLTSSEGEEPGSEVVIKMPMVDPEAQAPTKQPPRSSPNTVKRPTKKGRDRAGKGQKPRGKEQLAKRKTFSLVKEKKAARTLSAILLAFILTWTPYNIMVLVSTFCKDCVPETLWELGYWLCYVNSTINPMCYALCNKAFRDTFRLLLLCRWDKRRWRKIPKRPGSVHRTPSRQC

rat M1 [3] = biological target: T2, rat M1 (Rattus norvegicus, UniProt P08482); test: Calcium mobilization, rM1-CHO cells, PAM mode; assay type: cell-based; details: EC20 acetylcholine
T2 sequence (P08482 1-460): T1 sequence (P11229 1-460) with A5V, T254S, P309S, R320K, A337G, I413V

mouse M1 [4] = biological target: T3, mouse M1 (Mus musculus, UniProt P12657); test: Calcium mobilization, mM1-CHO cells, PAM mode; assay type: cell-based
T3 sequence (P12657 1-460): T1 sequence (P11229 1-460) with A5V, T254S, R320K, A337G, I413V

M1 [5] = biological target: T1, M1; test: Calcium mobilization, hM1-CHO cells, agonist mode; assay type: cell-based
rat M1 [6] = biological target: T2, rat M1; test: Calcium mobilization, rM1-CHO cells, agonist mode; assay type: cell-based
mouse M1 [7] = biological target: T3, mouse M1; test: Mouse M1 agonist activity, calcium mobilization; assay type: cell-based
[8] = Mouse brain:plasma partition, discrete i.p. dose; details: male, C57BL/6J, in vivo, ip, 10 mg/kg
C57Bl/6 mice [9] = test: Behavioral convulsions, modified Racine scale; assay type: in vivo, mouse; details: 100 mg/kg i.p., 3 h, modified Racine scale (0–5)
[10] = Mouse brain concentrations after i.p. dosing; assay type: in vivo; details: 100 mg/kg i.p., mice
M1 [11] = biological target: T1, M1; test: [3H]-NMS competition binding, human M1 membranes
hM1 = biological target: T4, hM1 (Homo sapiens, UniProt P11229); test: Acetylcholine affinity shift at hM1; assay type: binding
T4 sequence (P11229 1-460): T1 sequence (P11229 1-460)

M1 [12] = biological target: T1, M1; test: Discover X bias panel: M1 receptor internalization; assay type: cell-based
M1 [13] = biological target: T1, M1; test: Discover X bias panel: β-arrestin recruitment assay; assay type: cell-based
[14] = system: 68 GPCRs, ion channels, and transporters; test: Eurofin Lead Profiling radioligand binding panel; details: 10 μM, 68 targets
C57Bl/6 mice [15] = test: Spontaneous locomotor activity; assay type: in vivo, mouse; details: 1–10 mg/kg i.p.
mice [16] = test: Amphetamine-induced hyperlocomotion in mice; assay type: in vivo, mouse; details: 1–10 mg/kg i.p., amphetamine 3 mg/kg s.c.
SD rats = test: Amphetamine-induced hyperlocomotion in rats; assay type: in vivo, rat; details: 30 mg/kg i.p., amphetamine 1 mg/kg s.c.
rats = test: Novel object recognition task; assay type: in vivo, rat; details: rats, 1, 3, and 10 mg/kg i.p., 30 min pretreatment, assessed 24 h later
mice [17] = test: Modified Irwin Toxicology Battery; assay type: in vivo; details: 100 mg/kg i.p.

CCCCCCOc1nsnc1C1=CCCN(C)C1 [xanomeline]
attenuation of amphetamine-induced activity in M4 knockout mice (mice [1]): absent

Cn1cc(-c2ccc(Cn3cc(C(=O)N[C@H]4CCCC[C@@H]4O)c4c(F)cc(F)cc43)cn2)cn1 [Compound 28a, 4,6-Difluoro-N-(1S,2S)-2-hydroxycyclohexyl-1-((6-(1-methyl-1H-pyrazol-4-yl)pyridine-3-yl)methyl)-1H-indole-3-carboxamide]
EC50 (M1 [2]): 214 nM | hACh Max (%) (M1 [2]; PAM mode, hM1-CHO cells, EC20 acetylcholine, ± SEM): 86±1% | rACh Max (%) (rat M1 [3]; PAM mode, ± SEM): 92 ± 4% | EC50 (rat M1 [3]; rM1 EC50 (nM), PAM mode): 141 nM | EC50 (rat M1 [3]; rM1 pEC50, PAM mode, ± SEM): 138 nM | EC50 (mouse M1 [4]): 155 nM | mACh Max (%) (mouse M1 [4]; PAM mode, mM1-CHO cells, EC20 acetylcholine, ± SEM): 79 ± 1% | hACh Max (%), agonist (M1 [5]; hM1-CHO cells, ± SEM): 56 ± 14% | EC50 (M1 [5]; hM1 EC50 (μM), agonist, hM1-CHO cells): 4.8 µM | EC50 (M1 [5]; hM1 pEC50, agonist, hM1-CHO cells, ± SEM): 4.68 µM | fold weaker M1 agonist than 16 (M1 [5]; human and rat M1): 7 fold | EC50 (rat M1 [6]): 3980 nM | rACh Max (%), agonist (rat M1 [6]; agonist mode, rM1-CHO cells, ± SEM): 68 ± 9% | EC50 (mouse M1 [7]): 450 nM | mouse M1 agonist % ACh Max (mouse M1 [7]; agonist activity at mouse M1): 86% | Kp at 0.25 h [8]: 4.84 | Kp uu at 0.25 h [8]: 2.61 | behavioral convulsions (C57Bl/6 mice [9]): did not display observable behavioral seizure activity; also recorded: neither difluoro indole 28a nor 28c (both regioisomeric N-Me pyrazoles) induced behavioral convulsions | total maximum brain concentration [10]: 49.9 µM | unbound maximum brain concentration [10]: 649 nM | displacement of orthosteric radioligand [3H]-NMS (M1 [11]): slight inhibition of binding of the orthosteric radioligand at high concentrations; also recorded: weakly displaced | fold shift in ACh potency vs DMSO control (hM1; 0.3 μM PAM): 11 fold | fold shift in ACh potency vs DMSO control (hM1; 1.0 μM PAM): 58 fold | fold shift in ACh potency vs DMSO control (hM1; 10 μM PAM): 178 fold | EC50 (M1 [12]): > 10000 nM | M1 PAM potency and efficacy in β-arrestin recruitment (M1 [13]): comparable M1 PAM potency and efficacy | percent inhibition in ancillary pharmacology panel [14]: ≤ 50% | effect on spontaneous (basal) locomotor activity (C57Bl/6 mice [15]): significantly less effect on spontaneous locomotor activity | effect on spontaneous (basal) locomotor activity (C57Bl/6 mice [15]; listed as VU6004256): decreased locomotor activity at the highest dose of 10 mg/kg | reversal of amphetamine-induced hyperlocomotion (AHL) (mice [16]): did not reverse AHL in mice | reversal of amphetamine-induced hyperlocomotion (AHL) (SD rats): no effect | recognition memory, novel object recognition (rats): dose-dependently enhanced recognition memory | adverse effects, Modified Irwin Toxicology Battery (mice [17]; 100 mg/kg): no pronounced cholinergic effects | adverse effects, Modified Irwin Toxicology Battery (mice [17]; listed as VU6004256, 100 mg/kg): did not cause significant observable adverse effects
